These results are taken from patent US20240325747A1, “COMPOSITIONS AND METHODS OF A CONCOMITANT THERAPY OF ALTERNATING ELECTRIC FIELDS AND N-CADHERIN INHIBITOR” (NOVOCURE GMBH, priority 2023, published 2024).

Test [1] deals with H1299 cells. The test can be described thus: Calcium switch assay, cell morphology (phase-contrast). The class given is cell-based. The note with it: H1299, control and TTFields (72 h) conditions, 4 mM EGTA. The procedure:
(§1) FIGS. 10A-10E show N-cadherin engagement functions upstream of AKT activation during long-term TTFields application. (FIG. 10A) H1299 cells were either left untreated or treated with TTFields (150 kHz) for 72 h. Left panel: Confocal fluorescence microscopy images of N-cadherin in control and TTFields-treated cells are shown. Blue, DAPI-stained DNA; Red, F-actin; Green, N-cadherin; Scale bars, 20 μm. Right panel: Quantification of N-cadherin expression, shown as mean±SEM. *p<0.05; unpaired t-test: N≥2. (FIGS. 10B, 10C) A2780 and H1299 cells were treated with TTFields (200 kHz and 150 kHz, respectively) for 72 h and then: left untreated (No EGTA), treated with 4 mM EGTA (EGTA), or treated with 4 mM EGTA subsequently replaced with serum-free calcium-containing medium (EGTA/Ca^+2). (FIG. 10B) Representative phase-contrast images. Scale bars, 100 μm. (FIG. 10C) Upper panels: Samples were immunoblotted for AKT, pAKT (Ser473), and GAPDH. Lower panels: Densitometric analysis (arbitrary units normalized to the expression of the housekeeping protein GAPDH), is shown as mean±SEM. *p<0.05, and *** p<0.001; one-way ANOVA followed by Tukey's post hoc test: N≥2. […]

Test [2] has as its system A2780 cells. Described as above. Format: cell-based. The conditions noted are these: A2780, control and TTFields (72 h) conditions, 4 mM EGTA. The procedure:
as §1

Test [3] concerns H1299 cells. As to the kind of experiment: Calcium switch assay, immunoblot of AKT phosphorylation (Ser473) after TTFields. Format: cell-based. The conditions noted are these: H1299, TTFields 150 kHz 72 h then 4 mM EGTA; compared with TTFields-treated cells under normal calcium levels. The protocol:
as §1, with “GAPDH.” for “GAPDH. Lower panels: Densitometric analysis (arbitrary units normalized to the expression of the housekeeping protein GAPDH), is shown as mean±SEM. *p<0.05, and *** p<0.001; one-way ANOVA followed by Tukey's post hoc test: N≥2.”
(§2) NSCLC cells (FIGS. 4—H1299 cells) or ovarian cancer cells (FIGS. 5—A2780 cells) treated with TTFields for 72 hours were incubated with […] EGTA to disrupt cell-cell contacts. […] Relative protein densities of Akt on the Ser-473 ratio were determined. […]

The test system of test [4] is A2780 cells. The description is as above. The class given is cell-based. The note with it: A2780, TTFields 200 kHz 72 h then 4 mM EGTA; compared with TTFields-treated cells under normal calcium levels. The protocol: as §1, with “GAPDH.” for “GAPDH. Lower panels: Densitometric analysis (arbitrary units normalized to the expression of the housekeeping protein GAPDH), is shown as mean±SEM. *p<0.05, and *** p<0.001; one-way ANOVA followed by Tukey's post hoc test: N≥2.”
as §2

The subject of test [5] is angiogenesis. The conditions noted are these: cited from earlier work.
In test [6] the test system is tumor microenvironment. The conditions noted are these: systemic ADH-1; cited from earlier work.

Take `O=C(O)CN(CCOCCOCCN(CC(=O)O)CC(=O)O)CC(=O)O` [EGTA, ethylene glycol-bis (β-aminoethyl ether)-N,N,N′,N′-tetraacetic acid]: the Cell morphology result in test [1] and in test [2] was “rounded morphology” in each case. The “AKT phosphorylation (Ser473)” value in test [3] and in test [4] was “reduced phosphorylation of AKT” each time.
As for “N-Ac-CHAVC-NH2 (also: cyclic, type not given here) [ADH-1, cyclic peptide N-cadherin antagonist (CHAVC]”, the Angiogenesis entry in test [5] is given as “inhibit angiogenesis”. Moreover, the Tumor growth entry in test [6] is “modulate tumor growth through activation of the AKT pathway”.
